# From patent US8410161B2, “Thioxanthone ring system derivatives” (National Defense Medical Center, priority 2010, dated 2013)
# Key:
# A control cell lines = experiment: MTT assay, A control cell lines (lung cancer cell); assay type: cell-based
# Text: Please refer to Table 1 and FIGS. 4A-4C. According to a MTT assay (Table 1), various cell viabilities of the A control cell lines can be obtained and illustrated in FIG. 4A while the compounds No. 2˜30 are used to treat A control cell lines, wherein A control cell lines are lung cancer cell.
# A3 cell lines = experiment: MTT assay, A3 cell lines (lung cancer stem cell); assay type: cell-based
# Text: Please to FIG. 4B, various cell viabilities of the A3 cell lines can be obtained through the MTT assay and illustrated in FIG. 4B while the compounds No. 1˜30 are used to treat A3 cell lines, wherein A3 cell lines are lung cancer stem cell.
# [1] = MTT assay, HEL299 fibroblast; assay type: cell-based; conditions: human
# Text: Please refer to FIG. 4C, various cell viabilities of the HEL299 cell lines can be obtained through the MTT assay while the compounds No. 1˜30 are used to treat HEL299 cell lines, wherein HEL299 cell lines are fibroblast.
# CCRF-CEM = experiment: NCI in vitro DTP human cell line screen, CCRF-CEM; assay type: cell-based; conditions: Leukemia, 1.00E−5 Molar
# Procedure: (§1) Then, a cell toxicity assay of the cancer lines made by National Cancer Institute will be discussed as follows. The cell toxicity assay is performed by choosing ten compounds (existing certification numbers) from the 59 compounds disclosed in the present invention first.
# HL-60(TB) = experiment: NCI in vitro DTP human cell line screen, HL-60(TB); assay type: cell-based; conditions: Leukemia, 1.00E−5 Molar
# Procedure: as §1
# K562 = experiment: NCI in vitro DTP human cell line screen, K562; assay type: cell-based; conditions: Leukemia, 1.00E−5 Molar
# Procedure: as §1
# MOLT-4 = experiment: NCI in vitro DTP human cell line screen, MOLT-4; assay type: cell-based; conditions: Leukemia, 1.00E−5 Molar
# Procedure: as §1
# RPMI-8226 = experiment: NCI in vitro DTP human cell line screen, RPMI-8226; assay type: cell-based; conditions: Leukemia, 1.00E−5 Molar
# Procedure: as §1
# SR = experiment: NCI in vitro DTP human cell line screen, SR; assay type: cell-based; conditions: Leukemia, 1.00E−5 Molar
# Procedure: as §1
# EKVX = experiment: NCI in vitro DTP human cell line screen, EKVX; assay type: cell-based; conditions: Non-Small Cell Lung Cancer, 1.00E−5 Molar
# Procedure: as §1
# HOP-92 = experiment: NCI in vitro DTP human cell line screen, HOP-92; assay type: cell-based; conditions: Non-Small Cell Lung Cancer, 1.00E−5 Molar
# Procedure: as §1
# NCI-H226 = experiment: NCI in vitro DTP human cell line screen, NCI-H226; assay type: cell-based; conditions: Non-Small Cell Lung Cancer, 1.00E−5 Molar
# Procedure: as §1
# NCI-H23 = experiment: NCI in vitro DTP human cell line screen, NCI-H23; assay type: cell-based; conditions: Non-Small Cell Lung Cancer, 1.00E−5 Molar
# Procedure: as §1
# NCI-H322M = experiment: NCI in vitro DTP human cell line screen, NCI-H322M; assay type: cell-based; conditions: Non-Small Cell Lung Cancer, 1.00E−5 Molar
# Procedure: as §1
# NCI-H460 = experiment: NCI in vitro DTP human cell line screen, NCI-H460; assay type: cell-based; conditions: Non-Small Cell Lung Cancer, 1.00E−5 Molar
# Procedure: as §1
# NCI-H522 = experiment: NCI in vitro DTP human cell line screen, NCI-H522; assay type: cell-based; conditions: Non-Small Cell Lung Cancer, 1.00E−5 Molar
# Procedure: as §1
# COLO 205 = experiment: NCI in vitro DTP human cell line screen, COLO 205; assay type: cell-based; conditions: Colon Cancer, 1.00E−5 Molar
# Procedure: as §1
# HCC-2998 = experiment: NCI in vitro DTP human cell line screen, HCC-2998; assay type: cell-based; conditions: Colon Cancer, 1.00E−5 Molar
# Procedure: as §1
# HCT-116 = experiment: NCI in vitro DTP human cell line screen, HCT-116; assay type: cell-based; conditions: Colon Cancer, 1.00E−5 Molar
# Procedure: as §1
# HCT-15 = experiment: NCI in vitro DTP human cell line screen, HCT-15; assay type: cell-based; conditions: Colon Cancer, 1.00E−5 Molar
# Procedure: as §1
# HT29 = experiment: NCI in vitro DTP human cell line screen, HT29; assay type: cell-based; conditions: Colon Cancer, 1.00E−5 Molar
# Procedure: as §1
# KM12 = experiment: NCI in vitro DTP human cell line screen, KM12; assay type: cell-based; conditions: Colon Cancer, 1.00E−5 Molar
# Procedure: as §1
# SW-620 = experiment: NCI in vitro DTP human cell line screen, SW-620; assay type: cell-based; conditions: Colon Cancer, 1.00E−5 Molar
# Procedure: as §1
# SF-268 = experiment: NCI in vitro DTP human cell line screen, SF-268; assay type: cell-based; conditions: CNS Cancer, 1.00E−5 Molar
# Procedure: as §1
# SF-295 = experiment: NCI in vitro DTP human cell line screen, SF-295; assay type: cell-based; conditions: CNS Cancer, 1.00E−5 Molar
# Procedure: as §1
# SF-539 = experiment: NCI in vitro DTP human cell line screen, SF-539; assay type: cell-based; conditions: CNS Cancer, 1.00E−5 Molar
# Procedure: as §1
# SNB-75 = experiment: NCI in vitro DTP human cell line screen, SNB-75; assay type: cell-based; conditions: CNS Cancer, 1.00E−5 Molar
# Procedure: as §1
# U251 = experiment: NCI in vitro DTP human cell line screen, U251; assay type: cell-based; conditions: CNS Cancer, 1.00E−5 Molar
# Procedure: as §1
# LOX IMVI = experiment: NCI in vitro DTP human cell line screen, LOX IMVI; assay type: cell-based; conditions: Melanoma, 1.00E−5 Molar
# Procedure: as §1
# MALME-3M = experiment: NCI in vitro DTP human cell line screen, MALME-3M; assay type: cell-based; conditions: Melanoma, 1.00E−5 Molar
# Procedure: as §1
# M14 = experiment: NCI in vitro DTP human cell line screen, M14; assay type: cell-based; conditions: Melanoma, 1.00E−5 Molar
# Procedure: as §1
# MDA-MB-435 = experiment: NCI in vitro DTP human cell line screen, MDA-MB-435; assay type: cell-based; conditions: Melanoma, 1.00E−5 Molar
# Procedure: as §1
# SK-MEL-2 = experiment: NCI in vitro DTP human cell line screen, SK-MEL-2; assay type: cell-based; conditions: Melanoma, 1.00E−5 Molar
# Procedure: as §1
# SK-MEL-28 = experiment: NCI in vitro DTP human cell line screen, SK-MEL-28; assay type: cell-based; conditions: Melanoma, 1.00E−5 Molar
# Procedure: as §1
# SK-MEL-5 = experiment: NCI in vitro DTP human cell line screen, SK-MEL-5; assay type: cell-based; conditions: Melanoma, 1.00E−5 Molar
# Procedure: as §1
# UACC-257 = experiment: NCI in vitro DTP human cell line screen, UACC-257; assay type: cell-based; conditions: Melanoma, 1.00E−5 Molar
# Procedure: as §1
# IGROV1 = experiment: NCI in vitro DTP human cell line screen, IGROV1; assay type: cell-based; conditions: Ovarian Cancer, 1.00E−5 Molar
# Procedure: as §1
# OVCAR-3 = experiment: NCI in vitro DTP human cell line screen, OVCAR-3; assay type: cell-based; conditions: Ovarian Cancer, 1.00E−5 Molar
# Procedure: as §1
# OVCAR-4 = experiment: NCI in vitro DTP human cell line screen, OVCAR-4; assay type: cell-based; conditions: Ovarian Cancer, 1.00E−5 Molar
# Procedure: as §1
# OVCAR-5 = experiment: NCI in vitro DTP human cell line screen, OVCAR-5; assay type: cell-based; conditions: Ovarian Cancer, 1.00E−5 Molar
# Procedure: as §1
# OVCAR-8 = experiment: NCI in vitro DTP human cell line screen, OVCAR-8; assay type: cell-based; conditions: Ovarian Cancer, 1.00E−5 Molar
# Procedure: as §1
# NCI/ADR-RES = experiment: NCI in vitro DTP human cell line screen, NCI/ADR-RES; assay type: cell-based; conditions: Ovarian Cancer, 1.00E−5 Molar
# Procedure: as §1
# SK-OV-3 = experiment: NCI in vitro DTP human cell line screen, SK-OV-3; assay type: cell-based; conditions: Ovarian Cancer, 1.00E−5 Molar
# Procedure: as §1
# 786-0 = experiment: NCI in vitro DTP human cell line screen, 786-0; assay type: cell-based; conditions: Renal Cancer, 1.00E−5 Molar
# Procedure: as §1
# ACHN = experiment: NCI in vitro DTP human cell line screen, ACHN; assay type: cell-based; conditions: Renal Cancer, 1.00E−5 Molar
# Procedure: as §1
# CAKI-1 = experiment: NCI in vitro DTP human cell line screen, CAKI-1; assay type: cell-based; conditions: Renal Cancer, 1.00E−5 Molar
# Procedure: as §1
# TK-10 = experiment: NCI in vitro DTP human cell line screen, TK-10; assay type: cell-based; conditions: Renal Cancer, 1.00E−5 Molar
# Procedure: as §1
# UO-31 = experiment: NCI in vitro DTP human cell line screen, UO-31; assay type: cell-based; conditions: Renal Cancer, 1.00E−5 Molar
# Procedure: as §1
# PC-3 = experiment: NCI in vitro DTP human cell line screen, PC-3; assay type: cell-based; conditions: Prostate Cancer, 1.00E−5 Molar
# Procedure: as §1
# DU145 = experiment: NCI in vitro DTP human cell line screen, DU145; assay type: cell-based; conditions: Prostate Cancer, 1.00E−5 Molar
# Procedure: as §1
# MCF7 = experiment: NCI in vitro DTP human cell line screen, MCF7; assay type: cell-based; conditions: Breast Cancer, 1.00E−5 Molar
# Procedure: as §1
# MDA-MB-231/ATCC = experiment: NCI in vitro DTP human cell line screen, MDA-MB-231/ATCC; assay type: cell-based; conditions: Breast Cancer, 1.00E−5 Molar
# Procedure: as §1
# HS 578-T = experiment: NCI in vitro DTP human cell line screen, HS 578-T; assay type: cell-based; conditions: Breast Cancer, 1.00E−5 Molar
# Procedure: as §1
# BT-549 = experiment: NCI in vitro DTP human cell line screen, BT-549; assay type: cell-based; conditions: Breast Cancer, 1.00E−5 Molar
# Procedure: as §1
# T-47D = experiment: NCI in vitro DTP human cell line screen, T-47D; assay type: cell-based; conditions: Breast Cancer, 1.00E−5 Molar
# Procedure: as §1
# MDA-MB-468 = experiment: NCI in vitro DTP human cell line screen, MDA-MB-468; assay type: cell-based; conditions: Breast Cancer, 1.00E−5 Molar
# Procedure: as §1
# 60 cancer lines = experiment: NCI cell toxicity assay of 60 cancer lines, whole panel summary; assay type: cell-based, human; conditions: mean over all cell lines; 1.00E−5 Molar
# Procedure: as §1
smiles,measurement,setting,value
"Cc1cccc(C)c1Sc1ccc2c(=O)c3ccccc3sc2c1Cl [No. 12, 4-Chloro-3-(2,6-dimethylphenylthio)-9H-thioxanthen-9-one]",cell viabilities of A control cell lines (MTT assay),A control cell lines,103 ± 5.86%
same,cell viabilities of A3 cell lines (MTT assay),A3 cell lines,102 ± 9.52%
same,viability,[1],101 ± 9.52%
same,Growth Percent,CCRF-CEM,88.07%
same,Growth Percent,HL-60(TB),109.07%
same,Growth Percent,K562,97.86%
same,Growth Percent,MOLT-4,104.33%
same,Growth Percent,RPMI-8226,101.60%
same,Growth Percent,SR,95.93%
same,Growth Percent,EKVX,103.89%
same,Growth Percent,HOP-92,88.79%
same,Growth Percent,NCI-H226,109.77%
same,Growth Percent,NCI-H23,93.96%
same,Growth Percent,NCI-H322M,113.78%
same,Growth Percent,NCI-H460,110.85%
same,Growth Percent,NCI-H522,100.28%
same,Growth Percent,COLO 205,110.46%
same,Growth Percent,HCC-2998,103.54%
same,Growth Percent,HCT-116,105.21%
same,Growth Percent,HCT-15,99.05%
same,Growth Percent,HT29,103.86%
same,Growth Percent,KM12,113.08%
same,Growth Percent,SW-620,105.40%
same,Growth Percent,SF-268,98.33%
same,Growth Percent,SF-295,98.15%
same,Growth Percent,SF-539,106.48%
same,Growth Percent,SNB-75,90.00%
same,Growth Percent,U251,95.70%
same,Growth Percent,LOX IMVI,105.37%
same,Growth Percent,MALME-3M,100.81%
same,Growth Percent,M14,105.63%
same,Growth Percent,MDA-MB-435,107.09%
same,Growth Percent,SK-MEL-2,108.94%
same,Growth Percent,SK-MEL-28,110.00%
same,Growth Percent,SK-MEL-5,104.77%
same,Growth Percent,UACC-257,92.09%
same,Growth Percent,IGROV1,98.49%
same,Growth Percent,OVCAR-3,113.05%
same,Growth Percent,OVCAR-4,107.51%
same,Growth Percent,OVCAR-5,96.86%
same,Growth Percent,OVCAR-8,96.86%
same,Growth Percent,NCI/ADR-RES,105.14%
same,Growth Percent,SK-OV-3,111.32%
same,Growth Percent,786-0,108.98%
same,Growth Percent,ACHN,103.68%
same,Growth Percent,CAKI-1,89.35%
same,Growth Percent,TK-10,99.22%
same,Growth Percent,UO-31,87.03%
same,Growth Percent,PC-3,98.56%
same,Growth Percent,DU145,109.56%
same,Growth Percent,MCF7,94.01%
same,Growth Percent,MDA-MB-231/ATCC,108.12%
same,Growth Percent,HS 578-T,107.64%
same,Growth Percent,BT-549,105.28%
same,Growth Percent,T-47D,97.56%
same,Growth Percent,MDA-MB-468,113.20%
same,"Growth Percent, Mean",60 cancer lines,102.52%
